Values of other authors in patent US20060052448A1, “Use of methyl pyruvate or methyl pyruvic acid for the treatment of diseases of the nervous system and for protecting a human central nervous system against neuronal degeneration caused by defective intracellular energy production” (priority 2004, published 2006).
Like-named read-outs stand apart in the source and are kept apart here.

How the values were obtained:
[1] = test system: porcine carotid artery strips
malate-aspartate shuttle [2] = test system: malate-aspartate shuttle
malate-aspartate shuttle [3] = details: mGPDH-deficient islets, both shuttles halted
[4] = test system: porcine carotid artery strips; details: 10 mM in PSS
[5] = test system: isolated beta-cell mitochondria; details: in combination with glutamate
[6] = test system: isolated rat pancreatic islets
pancreatic beta-cells [7] = test system: pancreatic beta-cells
whole islets = details: 5 mM
K(ATP) channels = molecular target: T1, K(ATP) channels (Homo sapiens, UniProt Q09428+Q14654)
T1 construct: endogenous in cells
T1 sequence (Q14654 whole entry): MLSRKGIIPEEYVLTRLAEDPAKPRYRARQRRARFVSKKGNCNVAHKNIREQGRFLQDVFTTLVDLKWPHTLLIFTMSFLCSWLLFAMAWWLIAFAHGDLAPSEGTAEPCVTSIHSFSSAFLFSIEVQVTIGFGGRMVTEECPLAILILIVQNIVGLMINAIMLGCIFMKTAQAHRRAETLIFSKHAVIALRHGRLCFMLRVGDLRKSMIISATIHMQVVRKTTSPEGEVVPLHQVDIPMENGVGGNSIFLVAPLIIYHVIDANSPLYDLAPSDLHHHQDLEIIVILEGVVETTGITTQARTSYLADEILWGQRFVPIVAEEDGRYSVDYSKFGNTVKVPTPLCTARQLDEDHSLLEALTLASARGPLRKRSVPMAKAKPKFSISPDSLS
T1 sequence (Q09428 whole entry): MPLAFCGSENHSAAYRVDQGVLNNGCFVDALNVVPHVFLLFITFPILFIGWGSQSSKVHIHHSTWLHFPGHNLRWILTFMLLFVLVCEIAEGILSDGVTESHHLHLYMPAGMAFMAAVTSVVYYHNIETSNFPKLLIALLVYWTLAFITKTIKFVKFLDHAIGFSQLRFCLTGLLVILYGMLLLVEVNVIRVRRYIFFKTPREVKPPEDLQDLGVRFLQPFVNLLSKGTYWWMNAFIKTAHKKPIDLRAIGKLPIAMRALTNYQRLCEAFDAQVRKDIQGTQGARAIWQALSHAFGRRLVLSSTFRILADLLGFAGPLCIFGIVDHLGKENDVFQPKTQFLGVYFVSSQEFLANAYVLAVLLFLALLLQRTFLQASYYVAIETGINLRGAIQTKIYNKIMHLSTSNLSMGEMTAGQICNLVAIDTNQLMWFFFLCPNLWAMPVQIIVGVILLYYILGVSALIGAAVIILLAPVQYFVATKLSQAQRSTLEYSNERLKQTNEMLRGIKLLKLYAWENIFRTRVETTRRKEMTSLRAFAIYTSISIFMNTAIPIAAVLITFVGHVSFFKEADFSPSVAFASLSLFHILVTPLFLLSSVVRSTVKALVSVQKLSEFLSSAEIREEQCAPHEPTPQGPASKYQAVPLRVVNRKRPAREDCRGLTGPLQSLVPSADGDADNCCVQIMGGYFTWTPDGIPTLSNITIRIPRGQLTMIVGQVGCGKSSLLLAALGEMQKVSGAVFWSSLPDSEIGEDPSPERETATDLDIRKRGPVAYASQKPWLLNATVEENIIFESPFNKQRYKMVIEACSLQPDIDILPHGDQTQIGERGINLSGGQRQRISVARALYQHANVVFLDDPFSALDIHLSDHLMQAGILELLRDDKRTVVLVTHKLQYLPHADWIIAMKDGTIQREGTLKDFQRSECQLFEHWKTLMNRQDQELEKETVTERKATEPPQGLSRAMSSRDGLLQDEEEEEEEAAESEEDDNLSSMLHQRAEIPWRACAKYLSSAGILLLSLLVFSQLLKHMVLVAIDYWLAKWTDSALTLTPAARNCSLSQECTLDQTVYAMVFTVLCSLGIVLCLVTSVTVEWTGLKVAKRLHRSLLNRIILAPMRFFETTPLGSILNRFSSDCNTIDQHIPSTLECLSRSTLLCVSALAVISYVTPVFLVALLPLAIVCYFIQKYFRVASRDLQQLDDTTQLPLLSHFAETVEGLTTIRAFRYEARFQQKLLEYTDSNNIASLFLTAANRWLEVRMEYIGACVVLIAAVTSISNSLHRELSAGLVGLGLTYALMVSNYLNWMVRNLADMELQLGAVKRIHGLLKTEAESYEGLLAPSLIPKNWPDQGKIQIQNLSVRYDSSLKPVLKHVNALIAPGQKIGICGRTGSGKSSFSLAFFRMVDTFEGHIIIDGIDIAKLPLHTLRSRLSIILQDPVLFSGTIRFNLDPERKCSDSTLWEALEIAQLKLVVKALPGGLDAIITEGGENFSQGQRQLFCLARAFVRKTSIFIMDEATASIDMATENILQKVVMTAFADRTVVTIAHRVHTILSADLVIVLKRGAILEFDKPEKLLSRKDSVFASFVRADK

pancreatic beta-cells [8] = test system: pancreatic beta-cells; remark: listed apart in the source
[9] = test system: Jurkat T-lymphocyte mitochondria
pancreatic beta-cells [10] = test system: pancreatic beta-cells; remark: listed apart in the source
Na(+)-K(+)-ATPase = details: 10 microM

[Cl-].[K+] [KCl]
change in resting tone ([1]; 10 mM KCl, glucose-PSS): -0.8 ± 0.8 g
change in resting tone (increased contraction) ([1]; 10 mM KCl, lactate-PSS): 1.5 ± 0.7 g
change in resting tone ([1]; 10 mM KCl, pyruvate-PSS): -2.1 ± 0.8 g
EC50 ([1]; in glucose, read-out: EC50 of KCl concentration-response curve): 32.1 ± 0.9 mM

NOCC(=O)O [amino-oxyacetic acid]
negative shift in cytosolic NAD+/NADH redox potential (malate-aspartate shuttle [2]): 26 mV
glucose-induced insulin secretion (malate-aspartate shuttle [3]): almost completely abrogated

CC(O)C(=O)O (stereo not drawn) [lactate]
increase in O2 consumption [4]: without effect

COC(=O)C(C)=O [methyl pyruvate]
ATP production (accumulation of ATP in the medium) [5]: higher than that induced by pyruvate/glutamate
high concentration of the methyl ester giving negative insulinotropic action ([6]; and/or high D-glucose (16.7 mM)): 20.0 mM
concentration of the ester at which positive insulinotropic action prevailed ([6]; low D-glucose, 2.8 to 8.3 mM): ≤ 10.0 mM
depolarization of the beta-cell membrane potential (pancreatic beta-cells [7]; 5-20 mM): depolarized the beta-cell in a concentration-dependent manner
electrical activity (pancreatic beta-cells [7]; in the presence of 0.5 mM glucose): elicited electrical activity
effect on ATP/ADP ratio in whole islets (whole islets): no effect
K(ATP) current in standard whole-cell configuration (K(ATP) channels): inhibited
block of KATP (K(ATP) channels): produced a block of KATP
single-channel currents in inside-out patches (K(ATP) channels): blocked
increase in insulin secretion relative to that induced by glucose (pancreatic beta-cells [8]): 6 fold
concentration of maximal effect on insulin secretion (pancreatic beta-cells [8]; absence of glucose): 5 mM
cation current across the inner mitochondrial membrane [9]: directly inhibited
ATP production or ATP/ADP ratio (pancreatic beta-cells [10]): did not influence
NAD(P)H autofluorescence (pancreatic beta-cells [10]): slightly decreased
NADH and NADPH response (NAD(P)H imaging and LipDH autofluorescence) (pancreatic beta-cells [10]): stimulated a robust NADH and NADPH response
cytosolic free Ca(2+) concentration (pancreatic beta-cells [10]; after an initial decrease): increased

C[C@@H]1O[C@@H](O[C@H]2C[C@@H](O)[C@]3(CO)[C@H]4[C@H](O)C[C@]5(C)[C@@H](C6=CC(=O)OC6)CC[C@]5(O)[C@@H]4CC[C@]3(O)C2)[C@H](O)[C@H](O)[C@H]1O [ouabain]
glycolysis and lactate production (Na(+)-K(+)-ATPase): decreased glycolysis and lactate production
